Results as given in publication PMC7265341, “Quantifying CDK inhibitor selectivity in live cells” (Nature Communications, 2020).
“And” between values parts separate entries of the source, which are not always exact repeats. Identical values can stand only once. Like-named read-outs stand apart in the source and are kept apart here.

Tests used:
[1] = biological target: CDK5/CDK5R1 (Homo sapiens, UniProt Q00535); assay: NanoBRET live-cell target engagement, CDK5-NanoLuc/CDK5R1 in HEK-293; type: binding; conditions: CDK5/CDK5R1; for IC50: read-out: IC50
[2] = biological target: CDK18/Cyclin Y (Homo sapiens, UniProt Q07002); assay: NanoBRET live-cell target engagement, CDK18-NanoLuc/Cyclin Y in HEK-293; type: binding; conditions: CDK18/Y; for IC50: read-out: IC50
[3] = biological target: CDK8/Cyclin C (Homo sapiens, UniProt P49336); assay: NanoBRET live-cell target engagement, NanoLuc-CDK8/Cyclin C in HEK-293; type: binding; conditions: CDK8/C
[4] = biological target: CDK3/Cyclin E1 (Homo sapiens, UniProt Q00526); assay: NanoBRET live-cell target engagement, CDK3-NanoLuc/Cyclin E1 in HEK-293; type: binding
[5] = biological target: CDK6/Cyclin D1 (Homo sapiens, UniProt Q00534); assay: NanoBRET live-cell target engagement, NanoLuc-CDK6/Cyclin D1 in HEK-293; type: binding; conditions: CDK6/D1; for IC50: read-out: IC50
CDK6/Cyclin D1, sequence (Q00534 whole entry): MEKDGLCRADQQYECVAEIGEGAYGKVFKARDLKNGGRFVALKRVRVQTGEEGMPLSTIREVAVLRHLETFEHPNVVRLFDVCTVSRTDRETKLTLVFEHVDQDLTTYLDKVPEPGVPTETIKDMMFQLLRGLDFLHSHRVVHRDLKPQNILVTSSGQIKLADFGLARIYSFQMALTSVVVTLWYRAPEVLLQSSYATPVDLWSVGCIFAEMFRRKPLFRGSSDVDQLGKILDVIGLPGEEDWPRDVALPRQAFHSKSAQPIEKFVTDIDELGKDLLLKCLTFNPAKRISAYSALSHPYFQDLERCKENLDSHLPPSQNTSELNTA
CDK6/Cyclin D1, sequence (P24385 whole entry partner): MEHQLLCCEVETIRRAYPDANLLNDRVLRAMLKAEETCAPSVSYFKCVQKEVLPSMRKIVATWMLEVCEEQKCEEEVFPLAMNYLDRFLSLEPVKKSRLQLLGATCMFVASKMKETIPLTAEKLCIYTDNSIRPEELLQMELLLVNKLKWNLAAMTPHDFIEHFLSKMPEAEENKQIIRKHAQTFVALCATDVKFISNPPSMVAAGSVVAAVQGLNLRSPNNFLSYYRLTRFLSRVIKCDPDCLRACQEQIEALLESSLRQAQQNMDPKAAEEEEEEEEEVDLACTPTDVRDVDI

[6] = biological target: CDK17/Cyclin Y (Homo sapiens, UniProt Q00537); assay: NanoBRET live-cell target engagement, CDK17-NanoLuc/Cyclin Y in HEK-293; type: binding; conditions: CDK17/Y; for IC50: read-out: IC50
CDK17/Cyclin Y, sequence (Q00537 whole entry): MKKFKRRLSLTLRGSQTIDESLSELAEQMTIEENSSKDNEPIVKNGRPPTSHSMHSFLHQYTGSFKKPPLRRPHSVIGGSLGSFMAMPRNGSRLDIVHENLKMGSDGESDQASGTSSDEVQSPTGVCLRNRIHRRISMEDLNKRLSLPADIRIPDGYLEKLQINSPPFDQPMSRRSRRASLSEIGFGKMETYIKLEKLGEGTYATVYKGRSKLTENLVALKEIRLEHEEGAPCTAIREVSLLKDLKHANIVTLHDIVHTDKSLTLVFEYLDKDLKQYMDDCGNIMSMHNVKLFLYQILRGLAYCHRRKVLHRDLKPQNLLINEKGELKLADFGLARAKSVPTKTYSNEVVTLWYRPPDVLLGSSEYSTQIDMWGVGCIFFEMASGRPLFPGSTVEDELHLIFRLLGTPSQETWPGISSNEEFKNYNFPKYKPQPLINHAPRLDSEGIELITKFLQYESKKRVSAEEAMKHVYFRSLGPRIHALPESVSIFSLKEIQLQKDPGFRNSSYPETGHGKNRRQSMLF
CDK17/Cyclin Y, sequence (Q8ND76 whole entry partner): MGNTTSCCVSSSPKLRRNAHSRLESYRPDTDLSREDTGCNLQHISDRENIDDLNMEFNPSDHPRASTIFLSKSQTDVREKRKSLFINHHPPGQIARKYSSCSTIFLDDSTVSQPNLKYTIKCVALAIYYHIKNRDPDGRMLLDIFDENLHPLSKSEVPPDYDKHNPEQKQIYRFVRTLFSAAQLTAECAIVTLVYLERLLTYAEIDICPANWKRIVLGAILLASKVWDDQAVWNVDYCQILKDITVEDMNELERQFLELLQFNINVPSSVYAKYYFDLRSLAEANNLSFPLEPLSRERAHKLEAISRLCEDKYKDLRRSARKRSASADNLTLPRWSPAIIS

[7] = biological target: CDK20/Cyclin H (Homo sapiens, UniProt Q8IZL9); assay: NanoBRET live-cell target engagement, NanoLuc-CDK20/Cyclin H in HEK-293; type: binding; conditions: CDK20/H
[8] = biological target: CDK2/Cyclin E1 (Homo sapiens, UniProt P24941); assay: NanoBRET live-cell target engagement, CDK2-NanoLuc/Cyclin E1 in HEK-293; type: binding; conditions: 10 µM
[9] = biological target: CDK10/Cyclin L2 (Homo sapiens, UniProt Q15131); assay: NanoBRET live-cell target engagement, CDK10-NanoLuc/Cyclin L2 in HEK-293; conditions: CDK10/L2
[10] = biological target: CDK15/Cyclin Y (Homo sapiens, UniProt Q96Q40); assay: NanoBRET live-cell target engagement, NanoLuc-CDK15/Cyclin Y in HEK-293; type: binding; conditions: CDK15/Y; for IC50: read-out: IC50
CDK15/Cyclin Y, sequence (Q96Q40 whole entry): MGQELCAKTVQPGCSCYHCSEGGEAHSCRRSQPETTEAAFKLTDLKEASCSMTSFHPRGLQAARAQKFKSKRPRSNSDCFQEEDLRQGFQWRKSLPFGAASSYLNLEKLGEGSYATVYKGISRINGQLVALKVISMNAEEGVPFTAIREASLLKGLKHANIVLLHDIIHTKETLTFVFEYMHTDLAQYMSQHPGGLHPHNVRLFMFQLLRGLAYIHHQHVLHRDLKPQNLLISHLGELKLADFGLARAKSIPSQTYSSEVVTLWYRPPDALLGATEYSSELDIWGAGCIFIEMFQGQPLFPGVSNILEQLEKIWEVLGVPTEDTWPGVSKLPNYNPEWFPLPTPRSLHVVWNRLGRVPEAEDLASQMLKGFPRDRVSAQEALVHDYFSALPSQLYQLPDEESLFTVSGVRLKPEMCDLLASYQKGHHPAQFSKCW
CDK15/Cyclin Y, sequence (Q8ND76 whole entry partner): as the sequence (Q8ND76 whole entry partner) above

[11] = biological target: CDK1/Cyclin E1 (Homo sapiens, UniProt P06493); assay: NanoBRET live-cell target engagement, CDK1-NanoLuc/Cyclin E1 in HEK-293; type: binding; conditions: CDK1/E1; for IC50: read-out: IC50
[12] = biological target: CDK16/Cyclin Y (Homo sapiens, UniProt Q00536); assay: NanoBRET live-cell target engagement, CDK16-NanoLuc/Cyclin Y in HEK-293; type: binding; conditions: CDK16/Y; for IC50: read-out: IC50
CDK16/Cyclin Y, sequence (Q00536 whole entry): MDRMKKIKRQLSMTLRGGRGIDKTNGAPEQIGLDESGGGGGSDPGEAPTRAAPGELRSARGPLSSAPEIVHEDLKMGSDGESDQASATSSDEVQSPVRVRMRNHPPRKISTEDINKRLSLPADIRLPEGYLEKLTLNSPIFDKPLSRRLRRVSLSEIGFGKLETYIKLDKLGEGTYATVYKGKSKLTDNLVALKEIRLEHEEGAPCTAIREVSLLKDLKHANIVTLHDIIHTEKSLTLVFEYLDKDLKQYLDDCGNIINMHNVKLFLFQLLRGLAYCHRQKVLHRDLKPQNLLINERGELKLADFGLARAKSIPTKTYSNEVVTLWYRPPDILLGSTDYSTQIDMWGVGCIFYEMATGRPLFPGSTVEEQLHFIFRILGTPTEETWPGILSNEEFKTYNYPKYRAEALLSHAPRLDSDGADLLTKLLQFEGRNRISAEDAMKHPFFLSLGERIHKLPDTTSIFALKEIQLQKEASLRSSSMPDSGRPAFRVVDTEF
CDK16/Cyclin Y, sequence (Q8ND76 whole entry partner): as the sequence (Q8ND76 whole entry partner) above

[13] = biological target: CDK14/Cyclin Y (Homo sapiens, UniProt O94921); assay: NanoBRET live-cell target engagement, CDK14-NanoLuc/Cyclin Y in HEK-293; type: binding; conditions: CDK14/Y; for IC50: read-out: IC50
CDK14/Cyclin Y, sequence (O94921 whole entry): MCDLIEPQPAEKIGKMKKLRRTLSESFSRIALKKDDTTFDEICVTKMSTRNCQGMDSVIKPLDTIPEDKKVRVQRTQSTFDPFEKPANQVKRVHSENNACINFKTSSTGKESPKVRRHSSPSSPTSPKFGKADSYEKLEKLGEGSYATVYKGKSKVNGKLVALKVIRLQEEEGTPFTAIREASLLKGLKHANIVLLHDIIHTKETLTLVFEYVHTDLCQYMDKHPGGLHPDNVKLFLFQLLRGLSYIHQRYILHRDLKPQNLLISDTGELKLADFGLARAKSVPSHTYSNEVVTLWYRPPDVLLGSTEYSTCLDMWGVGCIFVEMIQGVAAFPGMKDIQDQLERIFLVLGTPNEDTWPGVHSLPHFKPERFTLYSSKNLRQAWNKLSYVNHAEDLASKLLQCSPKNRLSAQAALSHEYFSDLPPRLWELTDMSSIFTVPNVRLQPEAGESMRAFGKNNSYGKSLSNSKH
CDK14/Cyclin Y, sequence (Q8ND76 whole entry partner): as the sequence (Q8ND76 whole entry partner) above

[14] = biological target: CDK7 (Homo sapiens, UniProt P50613); assay: NanoBRET live-cell target engagement, NanoLuc-CDK7 in HEK-293; type: binding; conditions: CDK7; for IC50: read-out: IC50
[15] = biological target: CDK4/Cyclin D1 (Homo sapiens, UniProt P11802); assay: NanoBRET live-cell target engagement, NanoLuc-CDK4/Cyclin D1 in HEK-293; type: binding; conditions: CDK4/D1; for IC50: read-out: IC50
CDK4/Cyclin D1, sequence (P11802 whole entry): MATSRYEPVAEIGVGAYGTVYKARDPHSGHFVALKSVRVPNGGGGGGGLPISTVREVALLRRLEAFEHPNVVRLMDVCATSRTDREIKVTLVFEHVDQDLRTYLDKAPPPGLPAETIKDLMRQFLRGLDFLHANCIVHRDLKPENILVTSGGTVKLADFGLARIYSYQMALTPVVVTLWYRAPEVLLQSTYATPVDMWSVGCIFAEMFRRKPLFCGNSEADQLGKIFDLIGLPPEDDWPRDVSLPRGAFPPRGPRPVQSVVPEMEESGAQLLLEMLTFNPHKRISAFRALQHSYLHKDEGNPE
CDK4/Cyclin D1, sequence (P24385 whole entry partner): as the sequence (P24385 whole entry partner) above

[16] = biological target: T1, CDK11A/Cyclin L2 (Homo sapiens, UniProt Q9UQ88); assay: NanoBRET live-cell target engagement, CDK11A-NanoLuc/Cyclin L2 in HEK-293; type: binding; conditions: CDK11a/L2; for IC50: read-out: IC50
T1 sequence (Q9UQ88 1-783): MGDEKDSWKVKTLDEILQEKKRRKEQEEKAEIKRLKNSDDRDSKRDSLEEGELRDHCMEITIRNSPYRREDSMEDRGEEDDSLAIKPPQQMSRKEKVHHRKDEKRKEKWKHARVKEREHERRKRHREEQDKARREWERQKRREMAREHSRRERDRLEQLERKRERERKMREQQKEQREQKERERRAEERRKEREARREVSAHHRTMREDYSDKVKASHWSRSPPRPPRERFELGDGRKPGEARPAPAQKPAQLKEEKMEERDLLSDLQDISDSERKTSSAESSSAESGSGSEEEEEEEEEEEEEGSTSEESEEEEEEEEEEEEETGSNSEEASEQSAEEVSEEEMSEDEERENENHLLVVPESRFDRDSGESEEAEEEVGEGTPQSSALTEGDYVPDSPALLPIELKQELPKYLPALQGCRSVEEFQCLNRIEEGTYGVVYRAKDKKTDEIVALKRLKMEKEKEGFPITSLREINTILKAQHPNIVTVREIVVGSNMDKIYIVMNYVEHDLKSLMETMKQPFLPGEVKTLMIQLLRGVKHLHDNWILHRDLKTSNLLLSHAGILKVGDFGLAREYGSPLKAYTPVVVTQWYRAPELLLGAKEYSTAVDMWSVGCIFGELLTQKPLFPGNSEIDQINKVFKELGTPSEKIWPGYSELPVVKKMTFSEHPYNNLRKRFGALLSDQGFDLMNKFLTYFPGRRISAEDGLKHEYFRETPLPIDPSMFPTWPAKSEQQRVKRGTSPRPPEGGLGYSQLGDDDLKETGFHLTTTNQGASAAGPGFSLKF

[17] = biological target: CDK19/Cyclin C (Homo sapiens, UniProt Q9BWU1); assay: NanoBRET live-cell target engagement, NanoLuc-CDK19/Cyclin C in HEK-293; conditions: CDK19/C
CDK19/Cyclin C, sequence (Q9BWU1 whole entry): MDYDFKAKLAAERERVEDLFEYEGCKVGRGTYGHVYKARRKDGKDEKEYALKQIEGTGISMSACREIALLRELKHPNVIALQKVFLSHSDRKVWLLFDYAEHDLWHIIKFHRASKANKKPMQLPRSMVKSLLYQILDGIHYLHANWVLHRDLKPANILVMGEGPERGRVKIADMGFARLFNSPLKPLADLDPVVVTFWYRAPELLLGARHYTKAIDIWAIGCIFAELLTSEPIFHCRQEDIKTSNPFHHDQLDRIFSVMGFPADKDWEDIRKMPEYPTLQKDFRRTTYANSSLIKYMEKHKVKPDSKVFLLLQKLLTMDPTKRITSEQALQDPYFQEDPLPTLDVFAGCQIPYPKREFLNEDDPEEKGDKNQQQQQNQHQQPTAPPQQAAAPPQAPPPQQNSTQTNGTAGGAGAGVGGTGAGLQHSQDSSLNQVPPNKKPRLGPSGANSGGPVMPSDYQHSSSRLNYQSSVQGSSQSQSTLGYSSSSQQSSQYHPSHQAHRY
CDK19/Cyclin C, sequence (P24863 whole entry partner): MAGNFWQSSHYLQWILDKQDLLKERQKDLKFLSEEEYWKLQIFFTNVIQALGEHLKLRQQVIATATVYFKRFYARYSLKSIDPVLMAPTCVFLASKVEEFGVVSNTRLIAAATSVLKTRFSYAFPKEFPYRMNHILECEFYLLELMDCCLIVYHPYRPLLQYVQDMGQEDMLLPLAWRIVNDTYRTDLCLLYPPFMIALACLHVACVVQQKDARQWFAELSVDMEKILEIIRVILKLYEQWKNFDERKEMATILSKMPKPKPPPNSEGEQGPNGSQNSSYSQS

[18] = biological target: CDK11B/Cyclin L2 (Homo sapiens, UniProt P21127); assay: NanoBRET live-cell target engagement, CDK11B-NanoLuc/Cyclin L2 in HEK-293; type: binding; conditions: CDK11b/L2; for IC50: read-out: IC50
CDK11B/Cyclin L2, sequence (P21127 1-782 isoform P21127-2): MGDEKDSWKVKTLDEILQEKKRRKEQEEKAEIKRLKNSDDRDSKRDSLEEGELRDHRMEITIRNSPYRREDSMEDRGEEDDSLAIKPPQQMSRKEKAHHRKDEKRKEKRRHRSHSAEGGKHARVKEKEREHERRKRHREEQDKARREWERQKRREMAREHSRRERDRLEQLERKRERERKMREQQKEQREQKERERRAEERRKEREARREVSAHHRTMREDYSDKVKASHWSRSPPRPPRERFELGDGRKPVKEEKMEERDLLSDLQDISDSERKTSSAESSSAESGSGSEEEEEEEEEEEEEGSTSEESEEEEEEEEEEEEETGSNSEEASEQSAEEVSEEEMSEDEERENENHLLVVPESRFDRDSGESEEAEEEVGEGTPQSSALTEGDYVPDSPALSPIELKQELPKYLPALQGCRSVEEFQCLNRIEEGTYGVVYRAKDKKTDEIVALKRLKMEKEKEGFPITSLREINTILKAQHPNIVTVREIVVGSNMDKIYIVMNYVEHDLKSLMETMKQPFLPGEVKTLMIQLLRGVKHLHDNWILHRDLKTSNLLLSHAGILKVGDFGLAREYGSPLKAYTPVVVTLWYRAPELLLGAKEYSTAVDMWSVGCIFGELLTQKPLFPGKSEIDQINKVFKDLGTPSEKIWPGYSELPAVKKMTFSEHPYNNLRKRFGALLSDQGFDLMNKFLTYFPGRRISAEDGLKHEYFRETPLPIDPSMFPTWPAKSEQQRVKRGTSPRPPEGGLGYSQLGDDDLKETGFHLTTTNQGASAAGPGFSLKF

## CS(=O)(=O)N1CCC(NC(=O)c2[nH]ncc2NC(=O)c2c(Cl)cccc2Cl)CC1 [NVP-LCQ195]
[1]; average
  Inhibition at 10µM (%): 93.1%
[1]; average (± SEM where n=3)
  IC50: 0.031 µM
[1]; experiment 1
  Inhibition at 10µM (%): 90.4%
  IC50: 0.037 µM
[1]; experiment 2
  Inhibition at 10µM (%): 95.7%
  IC50: 0.025 µM
[2]; average
  Inhibition at 10µM (%): 97.0%
[2]; average (± SEM where n=3)
  IC50: 0.24 µM
[2]; experiment 1
  Inhibition at 10µM (%): 93.5%
  IC50: 0.31 µM
[2]; experiment 2
  Inhibition at 10µM (%): 100.6%
  IC50: 0.166 µM
[3]; average
  Inhibition at 10µM (%): 31.8%
[3]; experiment 1
  Inhibition at 10µM (%): 33.3%
[3]; experiment 2
  Inhibition at 10µM (%): 30.3%
[4]; CDK3/E1, average
  Inhibition at 10µM (%): 97.9%
[4]; CDK3/E1, average (± SEM where n=3), read-out: IC50
  IC50: 0.036 µM
[4]; CDK3/E1, experiment 1
  Inhibition at 10µM (%): 98.1%
[4]; CDK3/E1, experiment 1, read-out: IC50
  IC50: 0.036 µM
[4]; CDK3/E1, experiment 2
  Inhibition at 10µM (%): 97.6%
[4]; CDK3/E1, experiment 2, read-out: IC50
  IC50: 0.036 µM
[4]; live HEK-293, 2 h, mean ± S.E.M. (n=3) or mean (n=2), read-out: IC50 for CDK/cyclin complexes, CDK3/E1
  IC50: 0.036 µM
[5]; average
  Inhibition at 10µM (%): 99.2%
[5]; average (± SEM where n=3)
  IC50: 0.015 µM
[5]; experiment 1
  Inhibition at 10µM (%): 98.6%
  IC50: 0.018 µM
[5]; experiment 2
  Inhibition at 10µM (%): 99.9%
  IC50: 0.012 µM
[6]; average
  Inhibition at 10µM (%): 92.4%
[6]; average (± SEM where n=3)
  IC50: 0.011 µM
[6]; experiment 1
  Inhibition at 10µM (%): 92.3%
  IC50: 0.014 µM
[6]; experiment 2
  Inhibition at 10µM (%): 92.4%
  IC50: 0.0077 µM
[7]; experiment 1
  Inhibition at 10µM (%): 26.0%
[7]; experiment 2
  Inhibition at 10µM (%): 16.0%
[8]
  Inhibition at 10µM (%): 99.5% and 98.9%
[9]; average
  Inhibition at 10µM (%): 70.2%
[9]; experiment 1
  Inhibition at 10µM (%): 74.4%
[9]; experiment 2
  Inhibition at 10µM (%): 66.1%
[10]; average
  Inhibition at 10µM (%): 92.4%
[10]; average (± SEM where n=3)
  IC50: 0.38 µM
[10]; experiment 1
  Inhibition at 10µM (%): 93.0%
  IC50: 0.531 µM
[10]; experiment 2
  Inhibition at 10µM (%): 91.9%
  IC50: 0.22 µM
[11]; average
  Inhibition at 10µM (%): 92.5%
[11]; average (± SEM where n=3)
  IC50: 0.083 µM
[11]; experiment 1
  Inhibition at 10µM (%): 94.8%
  IC50: 0.058 µM
[11]; experiment 2
  Inhibition at 10µM (%): 90.2%
  IC50: 0.108 µM
[12]; average (± SEM where n=3)
  IC50: 0.013 µM
[12]; experiment 1
  Inhibition at 10µM (%): 92.7%
  IC50: 0.011 µM
[12]; experiment 2
  Inhibition at 10µM (%): 92.6%
  IC50: 0.014 µM
[13]; average
  Inhibition at 10µM (%): 90.1%
[13]; average (± SEM where n=3)
  IC50: 0.47 µM
[13]; experiment 1
  Inhibition at 10µM (%): 90.7%
  IC50: 0.607 µM
[13]; experiment 2
  Inhibition at 10µM (%): 89.6%
  IC50: 0.33 µM
[14]; average (± SEM where n=3)
  IC50: 0.069 µM
[14]; experiment 1
  Inhibition at 10µM (%): 86.7%
  IC50: 0.068 µM
[14]; experiment 2
  Inhibition at 10µM (%): 89.1%
  IC50: 0.07 µM
[15]; average
  Inhibition at 10µM (%): 94.3%
[15]; average (± SEM where n=3)
  IC50: 0.015 µM
[15]; experiment 1
  Inhibition at 10µM (%): 100.8%
  IC50: 0.019 µM
[15]; experiment 2
  Inhibition at 10µM (%): 87.9%
  IC50: 0.011 µM
[16]; average
  Inhibition at 10µM (%): 94.0%
[16]; average (± SEM where n=3)
  IC50: 0.16 µM
[16]; experiment 1
  Inhibition at 10µM (%): 93.9%
  IC50: 0.225 µM
[16]; experiment 2
  Inhibition at 10µM (%): 94.1%
  IC50: 0.095 µM
[17]; average
  Inhibition at 10µM (%): 37.8%
[17]; experiment 1
  Inhibition at 10µM (%): 38.7%
[17]; experiment 2
  Inhibition at 10µM (%): 37.0%
[18]; average
  Inhibition at 10µM (%): 94.8%
[18]; average (± SEM where n=3)
  IC50: 0.037 µM
[18]; experiment 1
  Inhibition at 10µM (%): 95.4%
  IC50: 0.035 µM
[18]; experiment 2
  Inhibition at 10µM (%): 94.2%
  IC50: 0.039 µM
